Data reported in PMC2816653, “Pre-clinical evaluation of cyclin-dependent kinase 2 and 1 inhibition in anti-estrogen-sensitive and resistant breast cancer cells” (British Journal of Cancer, 2009).

Tests used:
Assay in all cases: biochemical
Design in all cases: in vitro kinase inhibition assay
CDK5/p25 = target: T1, CDK5/p25 (Homo sapiens, UniProt Q00535); settings: read-out: NU2058 % inhibition
T1 construct: with p25

CDK9/cyclin T = CDK9/cyclin T (Homo sapiens, UniProt P50750); settings: read-out: NU2058 % inhibition
Chain of CDK9/cyclin T (P50750 whole entry): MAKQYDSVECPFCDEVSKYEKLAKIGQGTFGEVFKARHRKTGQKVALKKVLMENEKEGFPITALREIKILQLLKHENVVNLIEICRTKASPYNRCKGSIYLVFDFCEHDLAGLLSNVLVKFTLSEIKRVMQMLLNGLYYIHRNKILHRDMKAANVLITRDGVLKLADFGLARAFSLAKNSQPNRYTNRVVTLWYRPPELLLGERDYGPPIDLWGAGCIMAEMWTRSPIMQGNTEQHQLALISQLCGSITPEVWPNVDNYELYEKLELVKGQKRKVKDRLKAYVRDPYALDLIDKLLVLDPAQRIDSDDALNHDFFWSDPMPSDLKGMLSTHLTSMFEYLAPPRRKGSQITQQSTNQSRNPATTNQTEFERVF
Chain of CDK9/cyclin T (O60563 whole entry partner): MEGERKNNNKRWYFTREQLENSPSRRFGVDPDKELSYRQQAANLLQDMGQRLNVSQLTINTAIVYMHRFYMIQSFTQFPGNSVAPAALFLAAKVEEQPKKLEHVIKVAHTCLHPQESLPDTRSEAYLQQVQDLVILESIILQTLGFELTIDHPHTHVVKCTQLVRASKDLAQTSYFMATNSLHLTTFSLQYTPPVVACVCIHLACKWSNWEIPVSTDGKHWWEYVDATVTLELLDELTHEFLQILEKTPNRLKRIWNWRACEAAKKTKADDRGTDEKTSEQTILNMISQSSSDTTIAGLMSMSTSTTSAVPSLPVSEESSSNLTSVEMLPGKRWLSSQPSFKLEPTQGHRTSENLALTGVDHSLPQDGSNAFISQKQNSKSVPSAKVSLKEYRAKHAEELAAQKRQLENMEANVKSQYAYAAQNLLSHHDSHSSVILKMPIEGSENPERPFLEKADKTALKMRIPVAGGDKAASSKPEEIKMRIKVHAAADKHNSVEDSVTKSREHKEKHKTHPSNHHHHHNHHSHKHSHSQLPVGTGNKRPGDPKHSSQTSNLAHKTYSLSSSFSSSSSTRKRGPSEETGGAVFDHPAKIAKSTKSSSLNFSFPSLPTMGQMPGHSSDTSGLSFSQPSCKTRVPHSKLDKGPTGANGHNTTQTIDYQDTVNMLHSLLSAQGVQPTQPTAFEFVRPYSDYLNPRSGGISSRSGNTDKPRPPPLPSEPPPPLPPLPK

DYRK1a = DYRK1a (Homo sapiens, UniProt Q13627)

T1 sequence (Q00535 whole entry): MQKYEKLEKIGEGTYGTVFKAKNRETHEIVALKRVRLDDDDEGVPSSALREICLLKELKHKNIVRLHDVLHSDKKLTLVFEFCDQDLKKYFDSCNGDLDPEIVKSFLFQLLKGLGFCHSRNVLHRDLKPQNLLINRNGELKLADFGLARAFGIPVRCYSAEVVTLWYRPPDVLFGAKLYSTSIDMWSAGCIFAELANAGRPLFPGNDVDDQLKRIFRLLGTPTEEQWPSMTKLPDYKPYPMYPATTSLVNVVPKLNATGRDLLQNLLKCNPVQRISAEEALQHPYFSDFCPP
T1 sequence (Q15078 whole entry partner): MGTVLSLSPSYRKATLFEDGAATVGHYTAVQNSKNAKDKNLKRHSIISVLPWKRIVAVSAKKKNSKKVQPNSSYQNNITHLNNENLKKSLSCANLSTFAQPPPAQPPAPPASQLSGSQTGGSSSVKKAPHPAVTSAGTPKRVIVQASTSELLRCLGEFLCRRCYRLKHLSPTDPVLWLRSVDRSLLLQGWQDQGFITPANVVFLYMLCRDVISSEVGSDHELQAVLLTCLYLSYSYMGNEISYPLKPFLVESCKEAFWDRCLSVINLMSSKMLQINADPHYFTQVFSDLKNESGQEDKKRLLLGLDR

| SMILES | inhibition at 100 µM (CDK5/p25) [%] | inhibition at 100 µM (CDK9/cyclin T) [%] | IC50 (DYRK1a) [nM] |
| --- | --- | --- | --- |
| Nc1nc(OCC2CCCCC2)c2nc[nH]c2n1 [NU2058] | 50 | 43 | – |
| NS(=O)(=O)c1ccc(Nc2nc(OCC3CCCCC3)c3nc[nH]c3n2)cc1 [NU6102] | – | – | 950 |
